Read-outs that look alike come from different tables or passages of the source.
Legend:
[1] = test system: A549 human non-small cell lung cancer cell line; assay: 72-hour (long term) cell killing effects; format: cell-based; settings: CCK8
Experimental: Cell lines and Culture: Cell line A549 was cultured in DMEM medium (Gibco, Life Technologies, China). 10% HI fetal bovine serum was purchased from Gibco, Life Technologies, USA and 1% penicillin/streptomycin was obtained from Hyclone.
(§1) Approx. 2,000 cells in 50 μL complete medium were plated on each well of a 96-well plate and incubated at 37° C., 5% CO2 overnight. Drugs at concentrations of 0.02 μM to 10 μM were dissolved in 0.1% DMSO, followed by addition into each well. After incubation for 72 hours, 10 μL CCK8 (Dojindo) was added into each well, followed by incubation at 37° C. for another 4 hours. The OD values were obtained by TECAN Microplate Reader at 450 nm.
Processing of Compounds: For in vitro tests, compounds were directly dissolved in 10 mM DMSO and stored at −20° C.

786-O cell or A549 cell = assay: Cell morphology and survival rate after 4 to 8 hours incubation; format: cell-based, human; settings: for cell survival: 786-O cell or A549 cell, incubated for 8 hours; for cell morphology: cancer cells incubated for 4 hours
[2] = Pharmacokinetics and organ distribution after intravenous administration of Sunitinib, Compound 1 and Compound 2 in mice; parameters: AUCiv: unit not given beside the values; settings: mouse, in vivo
Excerpt: Relative Exposure(RE)=AUCi sample/AUCi control
AUCi—area under curve for the i^th organ or tissue; RE>1 indicates targeting at the organ or tissue, with larger RE indicating greater targeting; RE≦1 indicates non-targeting.
RTE refers to the multiple of the percent of drug content in a tissue of sample group with respect to total drug amount in the body vs. that in a control group. Positive RTE values indicate enhanced targeting effects and the more positive the more the multiple of enhancement and the more the enhanced targeting. In contrast, negative RTE values indicate reduced targeting effects. Value 0 indicate no influence to the tissue.
0.083 h, 0.25 h, 0.5 h, 1 h, 3 h, 8 h post injection, blood was taken by eyeball removal and the mice were sacrificed by cervical dislocation. Tissues were perfused with normal saline and livers and kidneys were removed and cleaned with normal saline. The blood samples were centrifuged to obtain supernatants and stored at −20° C. 50 μL plasma sample and 50 μL internal standard (clozapine) working solution was vortexed with 300 μL MeOH and then centrifuged. 150 μL upper organic phase was obtained and mixed with 150 μL water, followed by centrifugation. 10 μL supernatant was sampled for analysis. The tissue samples were weighted and mixed homogeneously with 10 times weight of water. Since the samples were 10-time diluted, the concentration of the tissue would be 10 times the results determined. The heart tissue was 5-time diluted. 100 μL homogenate was mixed with 50 μL internal standard (clozapine) working solution and 300 μL MeOH and then centrifuged. 150 μL upper organic phase was obtained and mixed with 150 μL water, followed by centrifugation. 10 μL supernatant was sampled for analysis.

[3] = test system: A549; NCI-H460; 786-O; Caki-1; HT-29; MCF-7; assay: 72 hour cytotoxicity (CCK8) in different cell lines; format: cell-based, human
Excerpt: A549 human non-small cell lung cancer cell line, NCI-H460 human non-small cell lung cancer cell line, 786-O human renal cell line, Caki-1 human renal cell line, HT-29 human colon cancer cell line, MDA-MB-231 human breast cancer cell line, and MCF-7 human breast cancer cell line was purchased from Chinese Academy of Science Shanghai Branch. PLC/PRF-5 human hepatoma cell line and Hepal-6 mouse hepatoma cell line were obtained from Institute of Biochemistry and Cell Biology, SIBS, CAS (SIBCB). Cell lines A549, Caki-1, HT-29, MDA-MB-231, MCF-7, PLC/PRF-5 and Hepal-6 were cultured in DMEM medium (Gibco, Life Technologies, China) and cell lines NCI-H460 and 786-O were cultured in RPMI-1640 medium (Gibco, Life Technologies, China). 10% HI fetal bovine serum was purchased from Gibco, Life Technologies, USA and 1% penicillin/streptomycin was obtained from Hyclone.
as §1, with “0.02” for “0.02 μM”
(§2) For in vitro tests, compounds were directly dissolved in 10 mM DMSO and stored at −20° C. For in vivo tests, the compounds were dissolved in DMSO and neutralized by Tween 80 (DMSO:Tween=1:1) and further neutralized by PBS (pH 7.4). The final concentrations of DMSO and Tween-80 were 5%.

in vivo = format: in vivo; parameters: AUCpo: unit not given beside the values; settings: mouse, in vivo
Excerpt: Animal experiments: 24 mice in each group were divided into 8 sub-groups.

pSTAT3 = assay: Effects on STAT3 phosphorylation in A549 cell line; format: cell-based, human; settings: 10 μM
Experimental: as §2

[4] = Acute toxicity test: maximum tolerance dosage (MTD) determination; format: in vivo, BALB/c mice
Experimental: Methods: Femal BALB/c mice, 4-5 weeks old, weighted greater than 17 g, were used for the test. […] The body weights and conditions of the mice were recorded.
In contrast, the body weights of mice in compound 2 group increased 6.0% in average.
To further explore the toxicity of the compounds, blood was collected after 14-day treatment of drugs and critical biochemical index were analyzed.

[5] = Stability of compounds 1 and 2 in MeOH stock solution and with biomass; format: physicochemical
Excerpt: No prodrug was detected in organs except for spleen during processing. […] The prodrugs may be converted to Sunitinib or other metabolite during processing or in vivo.

cancer cell xenograft = assay: Pharmacodynamic tests on mice xenograft transplantation model; format: in vivo; settings: intraperitoneally injected 1.5, 7.5, 30 mg/kg once a day for 2 weeks
Experimental: as §2
5×10^6 cancer cells were subcutaneously injected to the right side of mouse. Drug was intraperitoneally injected at dosages of 1.5 mg/kg, 7.5 mg/kg, 30 mg/kg to the mice, once a day, for 2 weeks when average tumor size reached 75 to 150 mm^3. The size of the tumor was measured every other day. […] Compound 1 had less efficacy.
We then performed the test through oral route. 5×10^6 cancer cells were subcutaneously injected to the right side of mouse. Drug was orally administered at dosages of 5 mg/kg, 15 mg/kg, 45 mg/kg to the mice, once a day, for 2 weeks when average tumor size reached 75 to 150 mm^3. The size of the tumor was measured every other day.

[6] = blood after 14-day treatment, 200 mg/kg
[7] = oral once a day for 14 days, 175 mg/kg
[8] = repeated test, oral once a day, 200 mg/kg

CCN(CC)CCNC(=O)c1c(C)[nH]c(/C=C2\C(=O)N(COC(C)=O)c3ccc(F)cc32)c1C [Compound 10]
IC50 [1]: 7.46 µM

CCN(CC)CCNC(=O)c1c(C)[nH]c(/C=C2\C(=O)N(COC(=O)C3CCCCC3)c3ccc(F)cc32)c1C [Compound 9, N-[2-(diethylamino)ethyl]-5-[(5-fluoro-2-oxo-1-(cyclohexylcarboxymethyl)-2,3-indolin-3-ylmethylene)]-2,4-dimethyl-1H-pyrrolidine-3-carboxamide]
IC50 [1]: 4 µM

CCN(CC)CCNC(=O)c1c(C)[nH]c(/C=C2\C(=O)N(COC(=O)C3CC3)c3ccc(F)cc32)c1C [Compound 11]
IC50 [1]: 2.56 µM

CCOC(=O)OCN1C(=O)/C(=C\c2[nH]c(C)c(C(=O)NCCN(CC)CC)c2C)c2cc(F)ccc21 [Compound 8]
IC50 [1]: 1.11 µM

CCN(CC)CCNC(=O)c1c(C)[nH]c(/C=C2\C(=O)N(COC(=O)C(C)C)c3ccc(F)cc32)c1C [Compound 12, N-[2-(diethylamino)ethyl]-5-[(5-fluoro-2-oxo-1-(isopropylcarboxymethyl)-2,3-indolin-3-ylmethylene)]-2,4-dimethyl-1H-pyrrolidine-3-carboxamide]
IC50 [1]: 9.07 µM

CCN(CC)CCNC(=O)c1c(C)[nH]c(/C=C2\C(=O)N(COC(=O)OC(C)(C)C)c3ccc(F)cc32)c1C [Compound 7, N-[2-(diethylamino)ethyl]-5-[(5-fluoro-2-oxo-1-(t-butoxycarboxymethyl)-2,3-indolin-3-ylmethylene)]-2,4-dimethyl-1H-pyrrolidine-3-carboxamide]
IC50 [1]: 1.79 µM

CCN(CC)CCNC(=O)c1c(C)[nH]c(/C=C2\C(=O)Nc3ccc(F)cc32)c1C.O=C(O)C[C@H](O)C(=O)O [Sunitinib, reference compound]
cell survival (786-O cell or A549 cell): did not affect cell survival
cell morphology (786-O cell or A549 cell): remained attached, elongate, and did not exhibit abnormal morphology
half-life ([2]; 5.14 mg/kg): 74.4 min
Tmax ([2]; iv, 5.14 mg/kg): 4.8 min
clearance ([2]; iv, 5.14 mg/kg): 4.51 mL/min
AUC ([2]; iv, 5.14 mg/kg, AUCall): 365 ng·h/mL
AUC ([2]; iv, AUCiv): 365 ng·h/mL
tumor killing effects / cytotoxicity [3]: relatively strong tumor killing effects
IC50 values among several cell lines ([3]; 72 hours, CCK8, FIG. 5a-f): comparable
bioavailability (in vivo): 15%
AUC (in vivo; po): 214 ng·h/mL
bioavailability (in vivo; po): 15.1%
AUC(0-inf) (in vivo; po, 20 mg/kg): 43.1 ng·h/mL
Cmax (in vivo; po, 20 mg/kg): 9.58 ng/mL
Tmax (in vivo; po, 20 mg/kg): 30 min
half-life (in vivo; po, 20 mg/kg): 284 min
inhibition of pSTAT3 (pSTAT3): strong inhibition
blood glucose [4, 6]: decreased
levels of aspartate transaminase (AST) alanine aminotransferase (ALT) and cholinesterase (CHE) [4, 6]: significantly elevated
levels of lactate dehydrogenase (LDH), creatine kinase (CK) and creatine kinase-MB (CKMB) [4, 6]: elevated
levels of urate and blood urea nitrogen [4, 6]: increased
effects on the body weights ([4]; oral once a day for 14 days, 28 mg/kg and 70 mg/kg): little effects
average body weight reduce [4, 7]: 17.6%
condition of the mice [4, 7]: extremely weak
influence on body weight ([4]; repeated test, oral once a day, 100 mg/kg): body weights did not increase
average body weight reduce [4, 8]: 20%
condition of the mice [4, 8]: extremely weak

CCN(CC)CCNC(=O)c1c(C)[nH]c(/C=C2\C(=O)N(COC(=O)c3ccc(OC)cc3)c3ccc(F)cc32)c1C [Compound 13, N-[2-(diethylamino)ethyl]-5-[(5-fluoro-2-oxo-1-(p-methoxyphenylcarboxymethyl)-2,3-indolin-3-ylmethylene)]-2,4-dimethyl-1H-pyrrolidine-3-carboxamide]
IC50 [1]: 3 µM

CCN(CC)CCNC(=O)c1c(C)[nH]c(C=C2C(=O)N(CC(=O)OC(C)(C)C)c3ccc(F)cc32)c1C [Compound 1, N-[2-(diethylamino)ethyl]-5-[(5-fluoro-2-oxo-1-(t-butylcarboxymethyl)-2,3-indolin-3-ylmethylene)]-2,4-dimethyl-1H-pyrrolidine-3-carboxamide]
cell survival (786-O cell or A549 cell): mass cell death
cell morphology (786-O cell or A549 cell): changed to round and suffered from stress
AUCiv ([2]; iv): 478.9
Cl ([2]; iv): 267.5 mL/h
Cmax, times than that of the control ([2]; iv): approx. 5 times
RTE analysis: distribution proportions in organs ([2]; iv): increased distribution proportions in liver and spleen
Tmax ([2]; iv): 4.8 min
IC50 values among several cell lines ([3]; 72 hours, CCK8, FIG. 5a-f): comparable
tumor killing effects / cytotoxicity ([3]; 72 hours, CCK8, FIG. 5a-f): relatively strong tumor killing effects
stability in the event of coexisting with biomass [5]: easy to degrade
AUCpo (in vivo; po): 946.2
Cl (in vivo; po): 3848.9 mL/h
Tmax (in vivo; po): 30 min
t1/2 (in vivo; po): 176 min
efficacy on tumor size (cancer cell xenograft): less efficacy

CCN(CC)CCNC(=O)c1c(C)[nH]c(/C=C2\C(=O)N(COC(=O)N(C)C)c3ccc(F)cc32)c1C [Compound 6, N-[2-(diethylamino)ethyl]-5-[(5-fluoro-2-oxo-1-(N,N-dimethylaminocarboxymethyl)-2,3-indolin-3-ylmethylene)]-2,4-dimethyl-1H-pyrrolidine-3-carboxamide]
IC50 [1]: 8.46 µM

— patent US20180022734A1 (Sound Biopharmaceuticals Ltd., priority 2015, published 2018)
